Measurements as given in US20050192243A1, “Neuromuscular blocking agents and antagonists thereof” (priority 2003, published 2005).

Legend:
Rhesus monkeys [1] = assay: Recovery of twitch response from GW 280430A neuromuscular block with or without cysteine-like antagonist; format: in vivo
Description: (§1) Rhesus monkeys were anesthetized with ketamine (5 mg/Kg) and thiopental (5 mg/Kg) given intramuscularly or intravenously. Anesthesia was maintained with a mixture of halothane (1.5%), nitrous oxide (60%) and oxygen (40%). The common peroneal nerve was stimulated supramaximally with square wave pulses of 0.2 m sec duration at a rate of 0.15 Hz. Twitch contractions were recorded via the tendon of the extensor digitorum muscle.
In all animals, the trachea was intubated and ventilation was controlled at 12-15 ml/kg, 18-24 breaths per minute. A peripheral vein and artery were cannulated for drug administration and for recording or arterial pressure, respectively.
Rhesus monkeys were anesthetized and treated with a halofumarate neuromuscular blocking agent as described in Example 1.
Several tests were generally run (#1, #2, #3, etc.) with time in between each test so that the animal could recover.

Rhesus monkeys [2] = conditions: GW 280430A-treated animals
Rhesus monkeys [3] = system: Rhesus monkeys
Description: as §1, with “ketainine” for “ketamine”
In all animals, the trachea was intubated and ventilation was controlled at 12-15 ml/kg, 18-24 breaths per minute. A peripheral vein and artery were cannulated for drug administration and for recording of arterial pressure, respectively. A dosage of 0.1 mg/kg of the 353044 intermediate duration halofumarate neuromuscular blocking agent was administered intravenously. The 353044 intermediate duration halofumarate neuromuscular blocking agent has the following structure, wherein X is Cl. [drawing 11]
For comparison, 0.5 mg/kg of the ultra-short 280430A halofumarate neuromuscular blocking agent was administered to a separate set of animals. […] Animals that had received the 353044 intermediate duration halofumarate neuromuscular blocking agent, then received a combination of […] 10 mg/kg glutathione.

[4] = 5 mg/kg antagonist after GW 280430A, FIG. 4, FIG. 5
[5] = #4 (after 3 administrations of 430A), 0.05 mg/kg 430A & cysteine 5 mg/kg
[6] = #4 (after 3 administrations of 430A), 0.05 mg/kg 430A & cysteine 10 mg/kg
[7] = Buck 13.2, 0.2 mg/kg 430A & cysteine 10.0 mg/kg
[8] = Count 13.1 kg, #4, 0.2 mg/kg 430A & cysteine 4 mg/kg
[9] = Impy 12.5 kg, #2, 0.05 mg/kg 430A & cysteine 5 mg/kg
[10] = Means of Skye, Impy & Count, 0.05 mg/kg 430A & cysteine 4 or 5 mg/kg
[11] = Means of Skye, Impy and Buck, 430A & Cysteine 10 mg/kg
[12] = Morgan 12.4 kg, #3, 0.1 mg/kg 430A & cysteine 20 mg/kg
[13] = Skye 11.6 kg, 0.2 mg/kg 430A & cysteine 10.0 mg/kg
[14] = Skye 12.1 kg, #2, 0.05 mg/kg 430A & cysteine 2 mg/kg
[15] = Buck 13.2, Baseline (430A, no cysteine)
[16] = Count 13.1 kg, #3, 0.2 mg/kg 430A alone
[17] = Impy 12.5 kg, #1, 0.05 mg/kg 430A alone
[18] = Impy 12.5 kg, #3, 0.05 mg/kg 430A alone
[19] = Means of Skye, Impy & Count, Baseline (430A, no cysteine)
[20] = Means of Skye, Impy and Buck, Baseline (430A, no cysteine)
[21] = Morgan 12.4 kg, #1, 0.05 mg/kg 430A alone
[22] = Morgan 12.4 kg, #2, 0.01 mg/kg 430A alone
[23] = Skye 11.6 kg, Baseline (430A, no cysteine)
[24] = Skye 12.1 kg, #1, 0.05 mg/kg 430A alone
[25] = Skye 12.1 kg, #3, 0.05 mg/kg 430A alone

N[C@@H](CCC(=O)N[C@@H](CS)C(=O)NCC(=O)O)C(=O)O [glutathione]
time to complete reversal of the block in neuromuscular activity after administration (Rhesus monkeys [1]; [4]): ≤ 140 s

CC(=O)N[C@@H](CS)C(=O)O [N-acetylcysteine, reference compound]
time to complete reversal of the block in neuromuscular activity after administration (Rhesus monkeys [1]; [4]): ≤ 165 s

N[C@@H](CS)C(=O)O [cysteine]
time to complete reversal of the block in neuromuscular activity after administration (Rhesus monkeys [1]; 5 mg/kg cysteine after GW 280430A, FIG. 3): ≤ 100 s | 25-75% recovery interval (Rhesus monkeys [1]; [5]): 63 s | Recovery 5-95% (Rhesus monkeys [1]; [5]): 237 s | time to 5% twitch recovery (Rhesus monkeys [1]; [5]): 15 s | time to 25% twitch recovery (Rhesus monkeys [1]; [5]): 39 s | time to 75% twitch recovery (Rhesus monkeys [1]; [5]): 102 s | time to 95% twitch recovery (Rhesus monkeys [1]; [5]): 252 s | 25-75% recovery interval (Rhesus monkeys [1]; [6]): 15 s | Recovery 5-95% (Rhesus monkeys [1]; [6]): 96 s | time to 5% twitch recovery (Rhesus monkeys [1]; [6]): 18 s | time to 25% twitch recovery (Rhesus monkeys [1]; [6]): 51 s | time to 75% twitch recovery (Rhesus monkeys [1]; [6]): 66 s | time to 95% twitch recovery (Rhesus monkeys [1]; [6]): 114 s | 25-75% recovery interval (Rhesus monkeys [1]; [7]): 2 s | Recovery 5-95% (Rhesus monkeys [1]; [7]): 42 s | time to 5% twitch recovery (Rhesus monkeys [1]; [7]): 6 s | time to 25% twitch recovery (Rhesus monkeys [1]; [7]): 24 s | time to 75% twitch recovery (Rhesus monkeys [1]; [7]): 26 s | time to 95% twitch recovery (Rhesus monkeys [1]; [7]): 48 s | Recovery 5% (Rhesus monkeys [1]; [8]): 9 s | Recovery 5-95% (Rhesus monkeys [1]; [8]): 27 s | Recovery 25% (Rhesus monkeys [1]; [8]): 15 s | Recovery 25-75% (Rhesus monkeys [1]; [8]): 15 s | Recovery 75% (Rhesus monkeys [1]; [8]): 30 s | Recovery 95% (Rhesus monkeys [1]; [8]): 36 s | Recovery 5% (Rhesus monkeys [1]; [9]): 6 s | Recovery 5-95% (Rhesus monkeys [1]; [9]): 90 s | Recovery 25% (Rhesus monkeys [1]; [9]): 33 s | Recovery 25-75% (Rhesus monkeys [1]; [9]): 15 s | Recovery 75% (Rhesus monkeys [1]; [9]): 48 s | Recovery 95% (Rhesus monkeys [1]; [9]): 96 s | 25-75% recovery interval (Rhesus monkeys [1]; [10]): 31 s | time to 5% twitch recovery (Rhesus monkeys [1]; [10]): 10 s | time to 25% twitch recovery (Rhesus monkeys [1]; [10]): 29 s | time to 75% twitch recovery (Rhesus monkeys [1]; [10]): 60 s | time to 95% twitch recovery (Rhesus monkeys [1]; [10]): 125 s | 25-75% recovery interval (Rhesus monkeys [1]; [11]): 12 s | Recovery 5-95% (Rhesus monkeys [1]; [11]): 76 s | time to 5% twitch recovery (Rhesus monkeys [1]; [11]): 10 s | time to 25% twitch recovery (Rhesus monkeys [1]; [11]): 31 s | time to 75% twitch recovery (Rhesus monkeys [1]; [11]): 43 s | time to 95% twitch recovery (Rhesus monkeys [1]; [11]): 86 s | Recovery 5% (Rhesus monkeys [1]; [12]): 24 s | Recovery 5-95% (Rhesus monkeys [1]; [12]): 144 s | Recovery 25% (Rhesus monkeys [1]; [12]): 42 s | Recovery 25-75% (Rhesus monkeys [1]; [12]): 24 s | Recovery 75% (Rhesus monkeys [1]; [12]): 66 s | Recovery 95% (Rhesus monkeys [1]; [12]): 168 s | 25-75% recovery interval (Rhesus monkeys [1]; [13]): 18 s | Recovery 5-95% (Rhesus monkeys [1]; [13]): 90 s | time to 5% twitch recovery (Rhesus monkeys [1]; [13]): 6 s | time to 25% twitch recovery (Rhesus monkeys [1]; [13]): 18 s | time to 75% twitch recovery (Rhesus monkeys [1]; [13]): 36 s | time to 95% twitch recovery (Rhesus monkeys [1]; [13]): 96 s | Recovery 5% (Rhesus monkeys [1]; [14]): 10 s | Recovery 5-95% (Rhesus monkeys [1]; [14]): 208 s | Recovery 25% (Rhesus monkeys [1]; [14]): 35 s | Recovery 25-75% (Rhesus monkeys [1]; [14]): 65 s | Recovery 75% (Rhesus monkeys [1]; [14]): 100 s | Recovery 95% (Rhesus monkeys [1]; [14]): 218 s | side effects at highest dosage tested (Rhesus monkeys [2]; cysteine 20 mg/kg): no negative side effects | effect on blood pressure or heart rate (Rhesus monkeys [2]; cysteine, therapeutic range (5-10 mg/Kg), FIG. 2): no significant affect on blood pressure or heart rate

COc1cc2c(cc1OC)[C@H](c1cc(OC)c(OC)c(OC)c1)[N@@+](C)(CCCOC(=O)/C=C(\Cl)C(=O)OCCC[N@+]1(C)CCc3cc(OC)c(OC)cc3[C@H]1Cc1cc(OC)c(OC)c(OC)c1)CC2.[Cl-].[Cl-] [GW 280430A, (Z)-2-Chloro-4-{3-[(1S,2R)-6,7-dimethoxy-2-methyl-1-(3,4,5-trimethoxyphenyl)-1,2,3,4-tetrahydro-2-isoquinolinio]propyl}-1-{3{(1R,2S)-6,7-dimethoxy-2-methyl-1-[(3,4,5-trimethoxyphenyl)methyl]-1,2,3,4-tetrahydro-2-isoquinolinio}propyl}-2-butenedioate dichloride]
25-75% recovery interval (Rhesus monkeys [1]; [15]): 54 s | Recovery 5-95% (Rhesus monkeys [1]; [15]): 114 s | time to 5% twitch recovery (Rhesus monkeys [1]; [15]): 12 s | time to 25% twitch recovery (Rhesus monkeys [1]; [15]): 48 s | time to 75% twitch recovery (Rhesus monkeys [1]; [15]): 102 s | time to 95% twitch recovery (Rhesus monkeys [1]; [15]): 126 s | Recovery 5% (Rhesus monkeys [1]; [16]): 9 s | Recovery 5-95% (Rhesus monkeys [1]; [16]): 75 s | Recovery 25% (Rhesus monkeys [1]; [16]): 24 s | Recovery 25-75% (Rhesus monkeys [1]; [16]): 33 s | Recovery 75% (Rhesus monkeys [1]; [16]): 57 s | Recovery 95% (Rhesus monkeys [1]; [16]): 84 s | Recovery 5% (Rhesus monkeys [1]; [17]): 30 s | Recovery 5-95% (Rhesus monkeys [1]; [17]): 141 s | Recovery 25% (Rhesus monkeys [1]; [17]): 63 s | Recovery 25-75% (Rhesus monkeys [1]; [17]): 57 s | Recovery 75% (Rhesus monkeys [1]; [17]): 120 s | Recovery 95% (Rhesus monkeys [1]; [17]): 171 s | Recovery 75% (Rhesus monkeys [1]; [18]): 45 s | Recovery 95% (Rhesus monkeys [1]; [18]): 78 s | 25-75% recovery interval (Rhesus monkeys [1]; [19]): 75 s | Recovery 5-95% (Rhesus monkeys [1]; [19]): 193 s | time to 5% twitch recovery (Rhesus monkeys [1]; [19]): 16 s | time to 25% twitch recovery (Rhesus monkeys [1]; [19]): 46 s | time to 75% twitch recovery (Rhesus monkeys [1]; [19]): 121 s | time to 95% twitch recovery (Rhesus monkeys [1]; [19]): 209 s | 25-75% recovery interval (Rhesus monkeys [1]; [20]): 77 s | Recovery 5-95% (Rhesus monkeys [1]; [20]): 193 s | time to 5% twitch recovery (Rhesus monkeys [1]; [20]): 22 s | time to 25% twitch recovery (Rhesus monkeys [1]; [20]): 61 s | time to 75% twitch recovery (Rhesus monkeys [1]; [20]): 138 s | time to 95% twitch recovery (Rhesus monkeys [1]; [20]): 215 s | Recovery 25% (Rhesus monkeys [1]; [21]): 40 s | Recovery 25-75% (Rhesus monkeys [1]; [21]): 103 s | Recovery 75% (Rhesus monkeys [1]; [21]): 143 s | Recovery 95% (Rhesus monkeys [1]; [21]): 233 s | Recovery 5% (Rhesus monkeys [1]; [22]): 30 s | Recovery 5-95% (Rhesus monkeys [1]; [22]): 282 s | Recovery 25% (Rhesus monkeys [1]; [22]): 42 s | Recovery 25-75% (Rhesus monkeys [1]; [22]): 144 s | Recovery 75% (Rhesus monkeys [1]; [22]): 186 s | Recovery 95% (Rhesus monkeys [1]; [22]): 312 s | 25-75% recovery interval (Rhesus monkeys [1]; [23]): 120 s | Recovery 5-95% (Rhesus monkeys [1]; [23]): 324 s | time to 5% twitch recovery (Rhesus monkeys [1]; [23]): 24 s | time to 25% twitch recovery (Rhesus monkeys [1]; [23]): 72 s | time to 75% twitch recovery (Rhesus monkeys [1]; [23]): 192 s | time to 95% twitch recovery (Rhesus monkeys [1]; [23]): 348 s | Recovery 5% (Rhesus monkeys [1]; [24]): 9 s | Recovery 5-95% (Rhesus monkeys [1]; [24]): 363 s | Recovery 25% (Rhesus monkeys [1]; [24]): 51 s | Recovery 25-75% (Rhesus monkeys [1]; [24]): 135 s | Recovery 75% (Rhesus monkeys [1]; [24]): 186 s | Recovery 95% (Rhesus monkeys [1]; [24]): 372 s | Recovery 25% (Rhesus monkeys [1]; [25]): 143 s | Recovery 25-75% (Rhesus monkeys [1]; [25]): 122 s | Recovery 75% (Rhesus monkeys [1]; [25]): 265 s | Recovery 95% (Rhesus monkeys [1]; [25]): 368 s | speed of recovery compared with 353044, with antagonist (Rhesus monkeys [3]; 0.50 mg/kg GW 280430A + 5 mg/kg cysteine vs 0.10 mg/kg 353044 + cysteine and glutathione, FIG. 9): again faster | speed of recovery compared with 353044, no antagonist (Rhesus monkeys [3]; 0.50 mg/kg GW 280430A vs 0.10 mg/kg 353044, FIG. 9 solid lines): recovered faster
